From US9636323B2, “Method of treating cancer that overexpresses TopBP1” (Baylor College of Medicine, priority 2014, dated 2017)

Legend:
[1] = system: T47D (PIK3CA mutant H1047R); conditions: NCI-60 cell lines database; cited from earlier work
MDA-MB468 cells [2] = assay: Colony formation assay; format: cell-based, human; conditions: 16 h treatment, then 8 days without drug
Protocol: MDA-MB468 cells were plated in 6-well plates at 200 cells/well. […] Cells were grown in fresh media without drugs for additional 8 days to form colonies, when each colony contained more than 50 cells. Plates were then stained with […] crystal violet (0.5 g Crystal violet, 25 ml methanol and 75 ml H2O). Cell number was counted.

[3] = system: NCI-H520 lung cancer cells; assay: Caspase 3/7 activation assay, NCI-H520; format: cell-based; conditions: 2.5 or 5 μM, 16 hours
Protocol: (§1) The apoptosis was measured by Caspase-Glo® 3/7 assay (Promega) following the manufacturer's protocol. The cells were plated in 6-well tissue culture dish (10^4 cells/well) (BD Falcon) in respective media. […] The blank reactions were prepared per direction. Equal volume of Caspase-Glo® 3/7 reagents were applied to each well. A luminometer (Sirius) was used to quantitate luminescence.

TopBP1 oligomerization [4] = biological target: T1, TopBP1 oligomerization (Homo sapiens, UniProt Q92547); assay: TopBP1 oligomerization in MDA-MB468 cells (co-IP of tagged TopBP1, DMP cross-linking); format: cell-based; conditions: 2.5 μM, 5 h
T1 construct: endogenous in cells; host or cells: MDA-MB468
T1 sequence (Q92547 whole entry): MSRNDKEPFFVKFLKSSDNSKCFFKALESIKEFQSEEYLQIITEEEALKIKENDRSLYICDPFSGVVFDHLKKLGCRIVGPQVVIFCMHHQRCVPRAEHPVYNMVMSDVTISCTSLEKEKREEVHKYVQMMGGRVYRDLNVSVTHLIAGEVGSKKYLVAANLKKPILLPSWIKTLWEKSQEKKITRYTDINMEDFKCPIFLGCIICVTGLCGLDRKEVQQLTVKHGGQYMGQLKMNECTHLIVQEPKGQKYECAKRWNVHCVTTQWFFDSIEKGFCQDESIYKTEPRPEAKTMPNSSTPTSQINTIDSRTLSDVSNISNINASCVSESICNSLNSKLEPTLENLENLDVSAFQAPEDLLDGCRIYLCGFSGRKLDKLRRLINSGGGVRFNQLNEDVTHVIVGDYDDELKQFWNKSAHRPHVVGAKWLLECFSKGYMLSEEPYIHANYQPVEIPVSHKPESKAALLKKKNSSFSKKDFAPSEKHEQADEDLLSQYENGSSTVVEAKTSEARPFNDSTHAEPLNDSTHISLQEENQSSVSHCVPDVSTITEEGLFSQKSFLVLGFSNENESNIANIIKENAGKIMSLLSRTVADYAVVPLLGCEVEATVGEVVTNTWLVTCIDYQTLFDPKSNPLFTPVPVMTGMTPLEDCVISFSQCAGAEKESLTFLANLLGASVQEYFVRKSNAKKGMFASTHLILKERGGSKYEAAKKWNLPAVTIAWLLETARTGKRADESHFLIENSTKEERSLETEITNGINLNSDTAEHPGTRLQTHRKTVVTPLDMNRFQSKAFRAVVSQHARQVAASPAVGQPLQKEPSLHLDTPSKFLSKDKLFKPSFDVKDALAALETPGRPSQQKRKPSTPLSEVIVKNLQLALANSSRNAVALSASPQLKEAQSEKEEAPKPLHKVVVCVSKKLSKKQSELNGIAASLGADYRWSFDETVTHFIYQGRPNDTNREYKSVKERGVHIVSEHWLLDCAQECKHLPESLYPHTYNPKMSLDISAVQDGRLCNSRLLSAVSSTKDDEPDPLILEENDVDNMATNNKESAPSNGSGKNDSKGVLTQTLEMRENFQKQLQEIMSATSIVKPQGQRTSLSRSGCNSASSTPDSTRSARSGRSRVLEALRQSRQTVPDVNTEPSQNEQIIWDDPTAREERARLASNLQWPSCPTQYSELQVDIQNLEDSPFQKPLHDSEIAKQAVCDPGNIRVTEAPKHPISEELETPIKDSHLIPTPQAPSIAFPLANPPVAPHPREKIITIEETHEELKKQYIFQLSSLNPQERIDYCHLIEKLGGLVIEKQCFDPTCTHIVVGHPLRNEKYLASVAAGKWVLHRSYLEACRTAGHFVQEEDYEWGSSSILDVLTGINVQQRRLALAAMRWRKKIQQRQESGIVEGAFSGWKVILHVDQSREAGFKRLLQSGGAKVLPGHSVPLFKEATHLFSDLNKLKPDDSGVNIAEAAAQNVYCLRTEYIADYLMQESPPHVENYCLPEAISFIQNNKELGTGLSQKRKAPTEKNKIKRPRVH
Protocol: (§2) MDA-MB468 cells were lysed with TNN buffer (Liu et al. 2003). An aliquot of cell lysates was lysed with SDS lysis buffer and the rest of cell lysates were incubated with appropriate antibodies or beads at 4° C. for 3-12 h. Anti-FLAG beads (Sigma) were washed three times with TNN buffer. Immunoprecipitates were fractionated by SDS-PAGE and electro-transferred to Immobilon-P membrane (Millipore). Equal amount of protein loading was validated with Ponceau-S staining. The specific signals were detected by incubating with appropriate antibody. All primary antibodies were used at 1:1000 dilution and horseradish peroxidase (HRP)-conjugated secondary antibodies were used at 1:5000 dilution for immunoblotting. E2F1 (C-20 and KH-95), p53 (FL393), p63 (4A4 and H-129), p73 (H-79), p21 (C-19), Bax (N-20), GST (B-14), c-Myc (A14), Miz1 (H-190), Chk1 (G4), Actin (C-2) and GAPDH (6C5) antibodies were purchased from Santa Cruz. TopBP1 (mouse monoclonal) and Aid antibodies were purchased from BD Transduction Laboratories. TopBP1 (BL893, Rabbit polyclonal) antibody was purchased from Bethyl. Mouse monoclonal anti-phospho-γH2AX was purchased from Millipore. Phospho-Chk1 (Ser345) antibody was purchased from Cell signaling. FLAG (F7425) antibody was purchased from Sigma. Mouse monoclonal anti-p73 (IMG-246) was purchased from IMGENEX. […]

TopBP1 oligomerization [5] = assay: as above; format: cell-based, human; conditions: 2.5 μM, 5 h
Protocol: as §2

BT549 cells = assay: Caspase-Glo 3/7 activity assay, BT549; format: cell-based, human; conditions: for Calcein AM-induced apoptosis: 17 h
Protocol: as §1
(§3) To prepare TopBP1 knockdown stable cell line, MDA-MB468 cells were infected with lentivirus expressing TopBP1 shRNA (Liu et al. 2011) as well as scramble shRNA, separately. The infected cells were grown for 48 h followed by selection with puromycin (2 μg/ml). After selection, the knockdown was confirmed by Western blotting before further experiments. Two different pLKO-shTopBP1 (#1 and #2) constructs (Open Biosystems, RHS4533-NM_007027) were used to deplete TopBP1 in MDA-MB468 cells. Additional two pSuper-shTopBP1 constructs (Liu et al. 2004) were used to knock down TopBP1 in HEK293 cells. Two pSuper-shE2F1 constructs were used to deplete E2F1: shE2F1#1 (described previously (Liu et al. 2004)), and shE2F1#2 (target sequence 5′-[…]-3′). The target sequence for pSuperior-shE2F1 is the same as pSuper-shE2F1#1. To deplete p63, shp63alpha pLKO.1-puro (from Addgene, 19120) was used. TP73 MISSION shRNA (shp73 pLKO.1-puro) was purchased from Sigma (TRCN00002722587).

[6] = biological target: T2, TopBP1/E2F1 interaction in HEK293T cells (Homo sapiens, UniProt Q92547); assay: Co-immunoprecipitation of overexpressed E2F1 and TopBP1; format: cell-based; conditions: 5 h
T2 construct: expressed in transfected cells
T2 sequence (Q92547 whole entry): as above
Protocol: MDA-MB468 cells were lysed with TNN buffer (Liu et al. 2003). An aliquot of cell lysates was lysed with SDS lysis buffer and the rest of cell lysates were incubated with appropriate antibodies or beads at 4° C. for 3-12 h. Anti-FLAG beads (Sigma) were washed three times with TNN buffer. Immunoprecipitates were fractionated by SDS-PAGE and electro-transferred to Immobilon-P membrane (Millipore). Equal amount of protein loading was validated with Ponceau-S staining. The specific signals were detected by incubating with appropriate antibody. All primary antibodies were used at 1:1000 dilution and horseradish peroxidase (HRP)-conjugated secondary antibodies were used at 1:5000 dilution for immunoblotting. E2F1 (C-20 and KH-95), p53 (FL393), p63 (4A4 and H-129), p73 (H-79), p21 (C-19), Bax (N-20), GST (B-14), c-Myc (A14), Miz1 (H-190), Chk1 (G4), Actin (C-2) and GAPDH (6C5) antibodies were purchased from Santa Cruz. TopBP1 (mouse monoclonal) and Aid antibodies were purchased from BD Transduction Laboratories. TopBP1 (BL893, Rabbit polyclonal) antibody was purchased from Bethyl. Mouse monoclonal anti-phospho-γH2AX was purchased from Millipore. Phospho-Chk1 (Ser345) antibody was purchased from Cell signaling. FLAG (F7425) antibody was purchased from Sigma. Mouse monoclonal anti-p73 (IMG-246) was purchased from IMGENEX.

[7] = system: U-87 MG glioblastoma multiforme cells; assay: Caspase 3/7 activation assay, U-87 MG; format: cell-based; conditions: 2.5 or 5 μM, 16 hours
Protocol: as §1

MDA-MB468 cells [8] = assay: Caspase 3/7 activity assay, MDA-MB468; format: cell-based, human
Protocol: as §1, §3

[9] = system: E2F sites of the p68 subunit of DNA polymerase α promoter; assay: pKL12 / pKL12-E2FAB promoter construct assay; format: cell-based; conditions: wild-type versus mutated E2F sites
[10] = system: primary leukemia cells from a patient with T cell acute lymphoblastic leukemia; assay: Caspase 3/7 activation assay, primary leukemia cells; format: cell-based; conditions: 2.5 μM, 7 hours
Protocol: as §1

MDA-MB468 cells [11] = assay: MTS assay, MDA-MB468; format: cell-based, human; conditions: 5 h
Protocol: Then 50 μl of MTS reagent (CellTiter 96® AQueous One Solution Cell Proliferation Assay, Promega) was added to each well, covered from light and incubated for 1 h at 37.0 incubator to develop purple color. The samples were measured at 490 nm in a plate reader (BioTek Synergy HT) against a blank 48-well plate. Each assay was done in triplicate.

TopBP1/Miz1 interaction = biological target: T3, TopBP1/Miz1 interaction (Homo sapiens, UniProt Q92547); assay: Co-immunoprecipitation in BT549 cells, TopBP1/Miz1; format: cell-based; conditions: 2.5 μM, 3 h
T3 construct: expressed in transfected cells; host or cells: BT549
T3 sequence (Q92547 whole entry): as above

MDA-MB231 cells = assay: Caspase 3/7 activity assay, MDA-MB231; format: cell-based, human; conditions: 2.5 μM overnight
Protocol: as §1

NCI-H522 = conditions: NCI-DTP database; cited from earlier work

## CC(=O)OCOC(=O)CN(CC(=O)OCOC(C)=O)Cc1cc2c(cc1OC(C)=O)Oc1cc(OC(C)=O)c(CN(CC(=O)OCOC(C)=O)CC(=O)OCOC(C)=O)cc1C21OC(=O)c2ccccc21 [Calcein AM, Calcein AM (acetoxymethyl ester)]
[1]
  GI50: 1.4 µM
MDA-MB468 cells [2]
  concentration at which inhibition of colony formation was apparent: ≥ 0.1 µM
[3]
  apoptosis (caspase 3/7 activation): induced apoptosis
TopBP1 oligomerization [4]
  endogenous TopBP1 oligomerization, DMP chemical crosslinking assay: blocked endogenous TopBP1 oligomerization
TopBP1 oligomerization [5]
  TopBP1 oligomerization, differentially tagged TopBP1: inhibit TopBP1 oligomerization
BT549 cells; 16 h
  concentration at which apoptosis was induced: ≥ 1 µM
BT549 cells; E2F1 depleted by two shRNA constructs, 2.5 μM, 16 h
  Calcein AM response, caspase activation: attenuated
BT549 cells; p63 depleted, 2.5 μM
  Calcein AM-induced apoptosis: decreased
BT549 cells; p73 depleted, 2.5 μM
  Calcein AM-induced apoptosis: decreased
[6]
  interaction between overexpressed E2F1 and TopBP1: inhibited the interaction between overexpressed E2F1 and TopBP1
[7]
  apoptosis (caspase 3/7 activation): induced apoptosis
MDA-MB468 cells [8]; 2.5 μM overnight
  apoptosis (caspase 3/7 activity): induced apoptosis
MDA-MB468 cells [8]; 0.1 and 0.5 μM, 16 h
  apoptosis (caspase 3/7 activity): not
MDA-MB468 cells [8]; 2.5 and 5 μM, 16 h
  apoptosis (caspase 3/7 activity): induced
MDA-MB468 cells [8]; TopBP1-depleted cells, 2.5 μM overnight
  effect of Calcein AM on apoptosis (caspase 3/7): mitigated the effect
[9]
  induction of promoter activity on pKL12 and pKL12-E2FAB: could only induce the activity on pKL12, but not on pKL12-E2FAB
[10]
  cell killing (caspase 3/7 activation): active in killing
MDA-MB468 cells [11]; TopBP1-depleted cells, 2.5 μM
  doxorubicin sensitivity (MTS): failed to cast the same effect
MDA-MB468 cells [11]; co-treated with doxorubicin, Calcein AM 2.5 μM
  doxorubicin sensitivity (MTS): greatly enhanced the doxorubicin sensitivity
MDA-MB468 cells [11]; increasing concentrations, versus MCF10A
  proliferation (MTS): preferentially inhibited the proliferation
MDA-MB468 cells [11]; shScr control cells, 2.5 μM
  doxorubicin sensitivity (MTS): sensitized
TopBP1/Miz1 interaction
  interaction between TopBP1 and Miz1: inhibited the interaction between TopBP1 and Miz1
MDA-MB231 cells
  apoptosis (caspase 3/7 activity): induced apoptosis
NCI-H522
  GI50: < 1 µM
